These results are taken from patent publication US10398710B2, “Method for screening regulator of mitochondrial fission” (priority 2015, dated 2019).

Molecules are shown by their SMILES. Values after ≈ are worked out from the molar mass of the structure shown. Peptide text beside a SMILES is read from it. * marks the point of attachment. Cbz = O=C(OCc1ccccc1)*; CH2F = FC*

The test system of assay [1] is MCF-7 cells. Put plainly: Western blot of mitochondrial fission- and fusion-related proteins. Type of assay: cell-based, human. The settings on record: 10 μg/mL, 24 hours. On the procedure:
In this regard, Western blot analysis was performed for each cultured cell to compare an expression level of the mitochondrial fission-related proteins (Drp1, Fis1, or OPA-3) and mitochondrial fusion-related proteins (Mfn1. Mfn2, or OPA1) (FIG. 5b).
In general terms: In western blotting, separated proteins are transferred to a membrane and probed.

For assay [2], the system named is MCF-7 cells. Put plainly: Effect of PARP or caspase-9 inhibitor on the anticancer effect of doxorubicin with C-K or PPD. Type of assay: cell-based, human. The settings on record: for anticancer activity of doxorubicin under PARP activity inhibitor with ginsenoside: 10 μg/mL ginsenoside and 5 μg/mL doxorubicin; for anticancer effect of doxorubicin in cells treated with the inhibitor: all control and experiment groups, 5 μg/mL doxorubicin 24 hours. The method, then: Specifically, a culture medium containing 10 μg/mL of C-K or PPD was added to MCF-7 cells already treated with Z-LEHD-FMK, an inhibitor of caspase-9, or 3-AB, an inhibitor of PARP, was cultured for 12 hours, and was then replaced with a culture medium containing 10 μg/mL of C-K or PPD and 0 g/mL or 5 μg/mL of doxorubicin, followed by 24 hours of culturing. Western blot analysis was performed using the cultured cells in the same manner as above (FIG. 3c).

Assay [3] deals with MCF-7 cells. As to the kind of experiment: Cytochrome-C release from mitochondria, immunofluorescent staining. It is filed as cell-based, human. To be noted: for increase in level of cytochrome-C release compared to doxorubicin alone / total cells from which cytochrome-C was released, ginsenoside and doxorubicin: 10 μg/mL ginsenoside 24 hours; for increase in level of cytochrome-C release compared to doxorubicin alone: then 5 μg/mL doxorubicin 4 hours; for total cells from which cytochrome-C was released, ginsenoside and doxorubicin: then 5 μg/mL doxorubicin. The method, then:
A culture medium containing 10 μg/mL of C-K or PPD was added to MCF-7 cells, was cultured for 24 hours, and was then replaced with a culture medium containing 5 μg/mL of doxorubicin, followed by 0 or 4 hours of culturing. The cultured cells were fixed by adding 4% paraformaldehyde and were perforated by adding an 0.5% Triton X-100 solution, followed by 30 minutes of immunostaining using a cytochrome-C antibody. After staining, the cells were washed with PBS. Stained second antibodies were heated for 30 minutes and washed with PBS, followed by being recorded with a confocal microscope, to measure a level of fluorescence (FIG. 4a).
In this regard, whether the level of cytochrome-C release changes depending on treatment time of doxorubicin was investigated. In other words, a culture medium containing 10 μg/mL of C-K or PPD was added to MCF-7 cells, was cultured for 24 hours, and was then replaced with a culture medium containing 5 μg/mL of doxorubicin, followed by 0, 0.5, 1, 2, 4, or 6 hours of culturing. The immunofluorescent staining was performed in the same manner as previously described except the culturing time to measure the number of cytochrome-C released into cytoplasm from mitochondria (FIG. 4b). As a control group, an experiment group untreated with ginsenoside was used.

Assay [4] relates to MCF-7 cells. As to the kind of experiment: Western blot of apoptosis-related proteins (pJNK, cleaved-PARP, cleaved-caspase-9). It is filed as cell-based, human. To be noted: for level of cleaved-PARP, effect of ginsenoside treatment / level of cleaved-caspase-9, effect of ginsenoside treatment / level of pJNK, effect of ginsenoside treatment: 10 μg/mL ginsenoside with 5 μg/mL doxorubicin. The method, then: A culture medium containing 10 μg/mL of C-K or PPD was added to the MCF-7 cells, was cultured for 12 hours, and was then replaced with a culture medium containing 10 μg/mL of C-K or PPD and 0 g/mL or 5 μg/mL of doxorubicin, followed by 24 hours of culturing. The cultured cells were destroyed, and Western blot analysis was performed using a pJNK antibody, PARP antibody, cleaved-PARP antibody, caspase-9 antibody, or cleaved-caspase-9 antibody (FIG. 3a).
Accordingly, a culture medium containing 10 μg/mL of PPD was added to the MCF-7 cells, was cultured for 12 hours, and was then replaced with a culture medium containing 10 μg/mL of PPD and 5 μg/mL of doxorubicin, followed by 0, 0.5, 1, 2, 4, or 6 hours of culturing. Western blot analysis was performed using the cultured cells in the same manner as above (FIG. 3b). As a comparison group, cells cultured in a culture medium containing doxorubicin only was used instead of that containing both PPD and doxorubicin.

Assay [5] deals with MCF-7 cells. Put plainly: WST-1 viability of MCF-7 cells pretreated with ginsenoside, then treated with doxorubicin or tamoxifen. To be noted: for effect on anticancer activity of doxorubicin / anticancer activity with doxorubicin compared to only doxorubicin: 10 μg/mL ginsenoside 12 hours; for effect on anticancer activity of doxorubicin: then 5 μg/mL doxorubicin 12 hours; for anticancer activity with doxorubicin compared to only doxorubicin: then doxorubicin 0-50 μg/mL 24 hours. It is filed as cell-based. On the procedure: Specifically, 10 μg/mL of PPD-type ginsenoside compound (F2, Rh2, C-K, or PPD) was added to the MCF-7 cells and was cultured for 12 hours. 20 μM of tamoxifen or 5 μg/mL of doxorubicin was then treated, and 12 hours of culturing was performed. Upon completion of the culturing, viability of MCF-7 cells was compared via WST-1 analysis (FIG. 2a).
Accordingly, in order to investigate whether C-K or PPD has an effect on a treatment concentration of doxorubicin, 10 μg/mL of the PPD-type ginsenoside compound (C-K or PPD) was added and cultured for 12 hours. Doxorubicin at various concentrations (0, 0.1, 0.5, 1, 2, 5, 10, and 50 μg/mL) was then treated and cultured for 24 hours, followed by comparing viabilities of the MCF-7 cells and also comparing LC50 values calculated therefrom via WST-1 analysis (FIG. 2b).

The subject of assay [6] is MCF-7 cells. As to the kind of experiment: WST-1 viability of MCF-7 cells treated with PPD-type ginsenoside compounds. Type of assay: cell-based, human. To be noted: MCF-7, 0-200 μg/mL, 24 hours. The method, then: First, MCF-7 cells, a human breast cancer cell line, were inoculated in a DMEM culture medium containing 10% FBS and 1% penicillin/streptomycin, and were then cultured at conditions of 37° C. and 5% CO2. When the cultured MCF-7 cells were saturated, subculture thereof was followed in a three- to five-day interval.
The cultured MCF-7 cells were treated with the PPD-type ginsenoside compounds (F2, Rh2, C-K, or PPD) at various concentrations (0, 5, 10, 20, 50, 100, or 200 μg/mL) for 24 hours, and WST-1 analysis was then performed on the cells to measure viability thereof (FIG. 1). The WST-1 analysis was performed by inoculating each cell in a culture medium containing 10% EZ-Cytox and reacting at 37° C. for 1.5 hours, followed by measuring a level of water-soluble formazan dye produced by the viable cells as absorbance (450 nm) and analyzing the same to calculate the cell viability.
For orientation: Tetrazolium assays rely on reduction of a dye to a coloured formazan, in cell work by metabolically active cells.

For assay [7], the system named is MCF-7 cells. As to the kind of experiment: Fluorescence staining of mitochondria with Tom-20. It is filed as cell-based, human. The settings on record: 10 μg/mL, 24 hours, Tom-20 staining. On the procedure: In other words, a culture medium containing 10 μg/mL of C-K or PPD was added to MCF-7 cells and was cultured for 24 hours. The cultured cells were fixed by adding 4% paraformaldehyde and were perforated by adding a 0.5% Triton X-100 solution, followed by staining the mitochondria using Tom-20. The stained cells were washed with PBS and were recorded with a confocal microscope to measure a level of fluorescence (FIG. 5a).

Assay [8] has as its system MCF-7 cells. As to the kind of experiment: WST-1 viability of siRNA-treated MCF-7 cells treated with doxorubicin or tamoxifen. To be noted: siRNA-treated MCF-7, 5 μM doxorubicin or 20 μM tamoxifen, 24 hours. It is filed as cell-based, human. The method, then: Meanwhile, each synthesized siRNA was inoculated into MCF-7 cells and was cultured for 12 hours. The cells were again cultured in a standard culture medium in which siRNA is not contained for 48 hours, followed by treating with 5 μM doxorubicin or 20 μM tamoxifen and culturing for 24 hours. After culturing, viabilities of the MCF-7 cells were measured via WST-1 analysis (FIG. 6b). As a control group, cells cultured without treating with doxorubicin or tamoxifen were used.

Where [9] appears, read: 10 μg/mL PPD and 5 μg/mL doxorubicin, 0-6 hours.

On to `CC(C)=CCC[C@](C)(O)[C@H]1CC[C@]2(C)[C@@H]1[C@H](O)C[C@@H]1[C@@]3(C)CC[C@H](O)C(C)(C)[C@@H]3CC[C@]12C` [PPD, protopanaxadiol], for which, in assay [1], the “expression level of mitochondrial fission-related protein OPA-3” value is recorded as “increased” and the “expression level of mitochondrial fusion-related protein Mfn2” value is “decreased”. Moreover, in assay [2], the “anticancer activity of doxorubicin under PARP activity inhibitor with ginsenoside” value was “somewhat recovered”. In assay [3], the “increase in level of cytochrome-C release compared to doxorubicin alone” value is recorded as “higher”. In assay [3] (after 6 hours), the “total cells from which cytochrome-C was released, ginsenoside and doxorubicin” value is recorded as 43%. In assay [4] (setting [9]), the “formation of cleaved-PARP over time compared to doxorubicin only” value is on record as “faster” and the “formation of cleaved-caspase-9 over time compared to doxorubicin only” value is “faster”. Besides, in assay [4] (24 hours), the “level of cleaved-PARP, effect of ginsenoside treatment” value is “not affected”; the “level of cleaved-caspase-9, effect of ginsenoside treatment” value is “significantly increased”; the “level of pJNK, effect of ginsenoside treatment” value was “not affected”. In assay [5], the “effect on anticancer activity of doxorubicin” value is “could enhance an anticancer activity by doxorubicin” and the “anticancer activity with doxorubicin compared to only doxorubicin” value is given as “increased”. Also, in assay [6], the “anticancer activity against breast cancer cells (viability)” value is reported as “relatively excellent anticancer activity”. Besides, the “state of mitochondria compared to negative control group” value in assay [7] is on record as “damaged”.

Turning to `COc1cccc2c1C(=O)c1c(O)c3c(c(O)c1C2=O)C[C@@](O)(C(=O)CO)C[C@@H]3O[C@H]1C[C@H](N)[C@H](O)[C@H](C)O1` [doxorubicin, reference compound], in assay [3] (5 μg/mL doxorubicin, 4 hours), the “level of cytochrome-C release compared to no doxorubicin” value is on record as “increased”. Besides, the “total cells from which cytochrome-C was released” value in assay [3] (only doxorubicin 5 μg/mL, after 6 hours) stood at 7%. Further, in assay [4] (5 μg/mL doxorubicin, 24 hours), the “level of cleaved-PARP” value is reported as “increased”, the “level of cleaved-caspase-9” value was “increased” and the “level of pJNK” value is listed as “increased”. Also, in assay [8], the “anticancer activity on cells with mitochondrial fission” value was “significantly higher anticancer activity” and the “change of anticancer activity depending on siRNA (Mfn2 inhibited compared to Mfn1 inhibited)” value is given as “significantly increased”. Further, the CC50 in assay [5] (Homo sapiens, MCF7, 24 h, read-out: LC50) was roughly 10 µg/mL (≈ 18.4 µM).

For `CC(C)=CCC[C@](C)(O[C@@H]1OC(CO)[C@@H](O)C(O)C1O)C1CC[C@]2(C)C1[C@H](O)CC1[C@@]3(C)CCC(O)C(C)(C)C3CC[C@]12C` (some centres unmarked) [C-K, compound-K], in assay [1], the “expression level of mitochondrial fission-related protein OPA-3” value is on record as “increased” and the “expression level of mitochondrial fusion-related protein Mfn2” value was “decreased”. Also, the “anticancer activity of doxorubicin under PARP activity inhibitor with ginsenoside” value in assay [2] was “somewhat recovered”. In addition, the “increase in level of cytochrome-C release compared to doxorubicin alone” value in assay [3] is recorded as “higher”. The “total cells from which cytochrome-C was released, ginsenoside and doxorubicin” value in assay [3] (after 6 hours) turned out to be 20%. In assay [4] (24 hours), the “level of cleaved-PARP, effect of ginsenoside treatment” value is “not affected”; the “level of cleaved-caspase-9, effect of ginsenoside treatment” value was “noticeably increased”; the “level of pJNK, effect of ginsenoside treatment” value was “not affected”. In assay [5], the “effect on anticancer activity of doxorubicin” value was “could enhance an anticancer activity by doxorubicin” and the “anticancer activity with doxorubicin compared to only doxorubicin” value is recorded as “increased”. In assay [6], the “anticancer activity against breast cancer cells (viability)” value is given as “relatively excellent anticancer activity”. In addition, the “state of mitochondria compared to negative control group” value in assay [7] is reported as “damaged”.

Regarding `NC(=O)c1cccc(N)c1` [PARP inhibitor, 3-AB, reference compound], in assay [2], the “anticancer effect of doxorubicin in cells treated with the inhibitor” value is recorded as “inhibited”.

In the case of `COC(=O)CC[C@H](NC(=O)[C@H](CC(C)C)NC(=O)OCc1ccccc1)C(=O)N[C@@H](Cc1cnc[nH]1)C(=O)N[C@@H](CC(=O)OC)C(=O)CF` [caspase-9 inhibitor, Z-LEHD-FMK, reference compound] (Cbz-LE(OMe)HD(OMe)-CH2F), the “anticancer effect of doxorubicin in cells treated with the inhibitor” value in assay [2] is “inhibited”.

For the compound `CC/C(=C(\c1ccccc1)c1ccc(OCCN(C)C)cc1)c1ccccc1` [tamoxifen], in assay [8], the “anticancer activity on cells with mitochondrial fission” value is “showed the anticancer activity” and the “change of anticancer activity depending on siRNA (Mfn2 inhibited compared to Mfn1 inhibited)” value is listed as “no difference”.
